Measured values reported in US11104589B2, “Recycling method of amphiphilic surface-active pollutants in water” (INSTITUTE OF PROCESS ENGINEERING, CHINESE ACADEMY OF …, priority 2018, dated 2021).

Test system: Human lung cancer cell line A549 cells
Test: MTT cytotoxicity assay
Format: cell-based
Settings: 24 hours incubation
Experimental: Human lung cancer cell line A549 cells were grown in DMEM medium supplemented with 10% (v/v) of fetal bovine serum (FBS) and 1% of penicillin streptomycin. A549 was first incubated at 37° C. for 24 hours with a density of 5000 cells per well. After being washed with phosphate buffered saline (PBS, pH=7.4), A549 cells were incubated together with 200 μL of medium having various concentrations for 24 hours (15 μ[…]). Three sets of parallel replicates were prepared for each concentration. Then, the medium was removed and replaced with 20 μL of MTT solution (5 mg/mL). A549 cells were further incubated for 3 hours. The medium having MTT was removed and replaced with 100 μL of DMSO. The plate was then shaken for 10 minutes. To assess cell viability, the optical density of the mixture at 492 nm was measured by an enzyme-linked immunosorbent assay spectrophotometer (infinite […]). For labeling, A549 cells were incubated at 37° C. for 24 hours in a cell culture dish with glass bottom at a density of 5000 cells/well and then mixed with prepared FCNs samples. […] The cell culture dish with glass bottom was covered with a tin foil until cell images were obtained by fluorescence microscopy under excitation at 408 nm, 488 nm and 561 nm.

## CCCCCCCCC(=O)O [nonanoic acid]
Concentration greater than 3840 μM
  toxicity to the cells (cytotoxicity, MTT): significant toxicity to the cells
Low concentration (15-240 μM)
  effect on cell viability (cytotoxicity, MTT): almost no effect on cell viability
